A compilation of properties of binary mixtures (doi:10.1021/je990135o)

Assay: excess molar enthalpy (molar enthalpy of mixing); xn = mol fraction of the nth substance listed
Settings: 100 kPa

CCOCCO + CCOC(=O)OCC
Settings	excess molar enthalpy [kcal/mol]
298.15 K, x2 = 0.0322	0.0225
298.15 K, x2 = 0.0624	0.0433
298.15 K, x2 = 0.1175	0.0801
298.15 K, x2 = 0.1666	0.11
298.15 K, x2 = 0.2104	0.136
298.15 K, x2 = 0.2855	0.171
298.15 K, x2 = 0.4442	0.223
298.15 K, x2 = 0.5454	0.234
298.15 K, x2 = 0.7057	0.221
298.15 K, x2 = 0.8275	0.17
298.15 K, x2 = 0.8648	0.145
298.15 K, x2 = 0.9056	0.111
313.15 K, x2 = 0.0321	0.028
313.15 K, x2 = 0.0623	0.0531
313.15 K, x2 = 0.0906	0.0753
313.15 K, x2 = 0.1173	0.0951
313.15 K, x2 = 0.2099	0.158
313.15 K, x2 = 0.285	0.199
313.15 K, x2 = 0.3469	0.226
313.15 K, x2 = 0.4436	0.256
313.15 K, x2 = 0.5447	0.27
313.15 K, x2 = 0.6146	0.271
313.15 K, x2 = 0.7052	0.254
313.15 K, x2 = 0.8271	0.193
313.15 K, x2 = 0.8645	0.165
313.15 K, x2 = 0.9054	0.124
313.15 K, x2 = 0.9503	0.0717

CCOCCOCCO + CCOC(=O)OCC
Settings	excess molar enthalpy [kcal/mol]
298.15 K, x2 = 0.1227	0.0459
298.15 K, x2 = 0.1571	0.0614
298.15 K, x2 = 0.2185	0.0837
298.15 K, x2 = 0.2716	0.102
298.15 K, x2 = 0.3587	0.128
298.15 K, x2 = 0.4271	0.146
298.15 K, x2 = 0.528	0.163
298.15 K, x2 = 0.6911	0.168
298.15 K, x2 = 0.8173	0.141
298.15 K, x2 = 0.8995	0.0985
298.15 K, x2 = 0.9307	0.0748
298.15 K, x2 = 0.9641	0.0425
313.15 K, x2 = 0.0443	0.0198
313.15 K, x2 = 0.1222	0.0574
313.15 K, x2 = 0.1566	0.0767
313.15 K, x2 = 0.2313	0.109
313.15 K, x2 = 0.2708	0.126
313.15 K, x2 = 0.3578	0.157
313.15 K, x2 = 0.4261	0.175
313.15 K, x2 = 0.527	0.197
313.15 K, x2 = 0.6257	0.202
313.15 K, x2 = 0.7697	0.184
313.15 K, x2 = 0.8167	0.167
313.15 K, x2 = 0.8699	0.139
313.15 K, x2 = 0.8991	0.117
313.15 K, x2 = 0.9304	0.0872

COCCO + CCOC(=O)OCC
298.15 K
Settings	excess molar enthalpy [kcal/mol]
x2 = 0.0263	0.0225
x2 = 0.0264	0.0191
x2 = 0.0512	0.0437
x2 = 0.0514	0.0363
x2 = 0.075	0.0607
x2 = 0.0975	0.0798
x2 = 0.0978	0.0672
x2 = 0.1395	0.112
x2 = 0.1398	0.0973
x2 = 0.1777	0.138
x2 = 0.1781	0.119
x2 = 0.2454	0.153
x2 = 0.3017	0.208
x2 = 0.3023	0.178
x2 = 0.3933	0.246
x2 = 0.3941	0.211
x2 = 0.4931	0.268
x2 = 0.4939	0.23
x2 = 0.5646	0.274
x2 = 0.5653	0.237
x2 = 0.6605	0.265
x2 = 0.6611	0.23
x2 = 0.7217	0.247
x2 = 0.7223	0.218
x2 = 0.796	0.188
x2 = 0.8384	0.182
x2 = 0.8388	0.164
x2 = 0.8861	0.142
x2 = 0.8864	0.129
x2 = 0.9396	0.0841
x2 = 0.9398	0.0767

CCCCOCCOCCO + CCOC(=O)OCC
Settings	excess molar enthalpy [kcal/mol]
298.15 K, x2 = 0.0553	0.0217
298.15 K, x2 = 0.1047	0.0433
298.15 K, x2 = 0.1493	0.06
298.15 K, x2 = 0.1896	0.0793
298.15 K, x2 = 0.2598	0.106
298.15 K, x2 = 0.3188	0.125
298.15 K, x2 = 0.4125	0.151
298.15 K, x2 = 0.4834	0.165
298.15 K, x2 = 0.584	0.176
298.15 K, x2 = 0.6781	0.175
298.15 K, x2 = 0.8081	0.15
298.15 K, x2 = 0.8488	0.131
298.15 K, x2 = 0.8939	0.104
298.15 K, x2 = 0.9182	0.0884
298.15 K, x2 = 0.944	0.0641
298.15 K, x2 = 0.9712	0.0356
313.15 K, x2 = 0.1043	0.0521
313.15 K, x2 = 0.1488	0.0743
313.15 K, x2 = 0.3179	0.149
313.15 K, x2 = 0.4114	0.175
313.15 K, x2 = 0.4823	0.193
313.15 K, x2 = 0.583	0.205
313.15 K, x2 = 0.6772	0.204
313.15 K, x2 = 0.7366	0.193
313.15 K, x2 = 0.8075	0.171
313.15 K, x2 = 0.8935	0.12
313.15 K, x2 = 0.9179	0.0973
313.15 K, x2 = 0.9438	0.0715
313.15 K, x2 = 0.9711	0.0392

CCCCOCCO + CCOC(=O)OCC
298.15 K
Settings	excess molar enthalpy [kcal/mol]
x2 = 0.043	0.0402
x2 = 0.0431	0.038
x2 = 0.0824	0.076
x2 = 0.0827	0.0707
x2 = 0.1188	0.107
x2 = 0.1191	0.098
x2 = 0.2123	0.177
x2 = 0.2129	0.163
x2 = 0.265	0.191
x2 = 0.3503	0.254
x2 = 0.351	0.229
x2 = 0.4181	0.278
x2 = 0.4189	0.25
x2 = 0.5196	0.268
x2 = 0.6138	0.267
x2 = 0.618	0.295
x2 = 0.6832	0.281
x2 = 0.7639	0.245
x2 = 0.7644	0.227
x2 = 0.8118	0.218
x2 = 0.8123	0.202
x2 = 0.8661	0.173
x2 = 0.8665	0.159
x2 = 0.8961	0.142
x2 = 0.8964	0.134
x2 = 0.9228	0.0593
x2 = 0.9283	0.106
x2 = 0.9285	0.0994

COCCOCCO + CCOC(=O)OCC
Settings	excess molar enthalpy [kcal/mol]
298.15 K, x2 = 0.0388	0.0174
298.15 K, x2 = 0.0748	0.0337
298.15 K, x2 = 0.1392	0.06
298.15 K, x2 = 0.1952	0.0827
298.15 K, x2 = 0.2444	0.103
298.15 K, x2 = 0.3267	0.126
298.15 K, x2 = 0.3927	0.146
298.15 K, x2 = 0.66	0.175
298.15 K, x2 = 0.7443	0.165
298.15 K, x2 = 0.7951	0.151
298.15 K, x2 = 0.8534	0.125
298.15 K, x2 = 0.8859	0.109
298.15 K, x2 = 0.9209	0.0827
298.15 K, x2 = 0.9588	0.0471
313.15 K, x2 = 0.0387	0.0201
313.15 K, x2 = 0.1077	0.0576
313.15 K, x2 = 0.1386	0.0739
313.15 K, x2 = 0.1945	0.101
313.15 K, x2 = 0.2436	0.125
313.15 K, x2 = 0.3257	0.157
313.15 K, x2 = 0.3916	0.179
313.15 K, x2 = 0.4914	0.202
313.15 K, x2 = 0.6589	0.215
313.15 K, x2 = 0.7435	0.201
313.15 K, x2 = 0.7944	0.185
313.15 K, x2 = 0.8529	0.156
313.15 K, x2 = 0.8854	0.133
313.15 K, x2 = 0.9587	0.0583
